Results published in patent US20100216706A1, “Ghrelin Protects Substantia Nigra Dopamine Neurons” (priority 2007, published 2010).
No end group written: not given here. *: point of attachment. Octanoyl = CCCCCCCC(=O)*

Assays:
[1] = tested on: tyrosine hydroxylase (TH) mRNA; test: TH mRNA expression in the midbrain (real-time PCR); type: in vivo; settings: three hours after ghrelin injection (10 nmols), wild-type mice; saline 1.03±0.15
Protocol: Real-time PCR: RNA was extracted from the midbrain of 8 ghrelin-treated mice or 8 saline-treated mice using TRIzol® (Invitrogen, Carlsbad, Calif.) according to the manufacturer's instructions. cDNA was synthesized using the First-Strand cDNA synthesis kit (Amersham Biosciences), using a total of 3 μg of total RNA in 15 μl of total volume. Real-time PCR analysis of TH mRNA (SEQ ID NO. 4: 5′ […] 3′; SEQ ID NO. 5: 5′ […] 3′) was performed using iQ SYBR green supermix (Bio-Rad) and […] of each primer. Primers for 18S were used as controls. Measurements were performed on an iCycler (Bio-Rad).
Tyrosine hydroxylase (TH) is the rate limiting enzyme of dopamine biosynthesis. An experiment was performed to examine whether ghrelin alters TH mRNA expression in the midbrain.

SNpc DA neurons = test: Whole-cell patch clamp, action potential firing of SNpc DA neurons in brain slices; type: cell-based, mice and rats
Protocol: Patch clamp recordings from VTA dopamine neurons: Brain slices (300 μm) containing the substantia nigra pars compacta (SNpc), were cut on a vibratome from 2-3 week old male and female mice (n=9) and rats (n=5). Briefly, animals were anesthetized with Nembutal (80 milligram/kilogram body weight) and then decapitated. The brains were rapidly removed and immersed in cold (4° C.) oxygenated bath solution (containing (mM): NaCl 150; KCl 2.5; CaCl2 2; MgCl2 2; Hepes 10; and glucose 10, pH 7.3 with NaOH). After being trimmed to contain only the SNpc, slices were transferred to a recording chamber where they were constantly perfused with bath solution at 2 milliliter/minute. Dopamine neurons in the SNpc were identified by presence of a large Ih current (>100 pA) evoked by hyperpolarizing voltage steps from −50 to −120 mV for 2 seconds. This approach identifies dopaminergic cells with >90% accuracy (Abizaid et al., 2006, J Clin Invest. 116(12):3229-39. Epub 2006 Oct. 19). In brain slices, whole-cell current clamp was used to observe spontaneous action potentials. Slices were maintained at 33° C. and perfused continuously with ASCF (bubbled with 5% CO2 and 95% O2) containing (in mM): NaCl, 124; KCl, 3; CaCl2, 2; MgCl2, 2; NaH2PO4, 1.23; NaHCO3, 26; glucose, 10, pH 7.4 with NaOH. Ghrelin was applied to the recording chamber via bath application. The pipette solution contained (mM): gluconic acid 140; CaCl2, MgCl2 2; EGTA 1; HEPES 10; Mg-ATP; 4, and Na2-GTP; 0.5, pH 7.3 with KOH
To address this question, an experiment using whole-cell patch clamp electrophysiology was performed to investigate whether ghrelin directly activates SNpc DA neurons. DA neurons (n=11) in the SNpc were identified based on their characteristic Ih currents (Johnson et al., 1992, J Neurosci 12: 483-8). Spontaneous action potentials were recorded under current clamp for at least 10 minutes of stable recording. Ghrelin (1-3 μmol) was applied via bath application.

[2] = tested on: SNpc DA neurons mitochondria; test: Mitochondria number in SNpc DA perikarya (electron microscopy); type: in vivo, mice
From the text: Mitochondria number: Animals were perfused and their brains were processed for TH immunolabeling for electron microscopic examination. Ultrathin sections were cut on a Leica ultra microtome, collected on Formvar-coated single-slot grids and analyzed with a Tecnai 12 Biotwin (FEI Company) electron microscope. Mitochondria were counted blindly from randomly selected sections, and Scion Image was used to normalize cytoplasmic area so that mitochondrial number per cell is expressed in square micrometers.
Given that ghrelin induces mitochondrial respiration as described above, an experiment was performed to test whether ghrelin could also alter mitochondrial number in the SNpc DA perikarya. […]
Therefore, an experiment was performed to test whether ghrelin increases mitochondrial number in the SNpc dopamine neurons. […] In line with this, UCP2 ko mice show reduced mitochondrial number in the SNpc dopamine neurons, which predisposes them to environmental toxins (Andrews et al., 2005, J Neurosci 25:184-191). Furthermore, mitochondrial dysfunction lies at the very heart of Parkinson's disease (Lin et al., 2006, Nature 443:787-795).

TH neurons in the SNpc = test: MPTP-induced TH cell loss in the SNpc (stereology, optical fractionator); type: in vivo, mice
From the text: Control animals were given saline. Animals were sacrificed and perfused 7 days later and processed for immunohistochemistry or HPLC for dopamine (DA) and metabolites. n=8-10 for ghrelin wt and ko mice; n=6 for GHSR wt/wt, homo/wt and homo/TG.
TH cell quantification: Free floating sections were stained with TH (1:5000, Chemicon International) and visualized with DAB using standard procedures.
Unbiased stereology methods were used to quantify TH immunoreactive cells in the SNpc. Cells were visualized by a Zeiss microscope and relayed via a MicroFibre digital camera (www(dot)optronics(dot)com) to a computer where they were counted using the optical fractionator with the sophisticated Stereolnvestigator software (MicroBrightField, Williston, Vt., USA). Every fourth section was collected through the SNpc, and TH cells were counted in grids randomly positioned by the software in the outlined counting area through all optical planes, thus creating a 3 dimensional counting area.
The observation that ghrelin promotes SNpc DA neuronal function, mitochondrial respiration and number raises the possibility that ghrelin may protect nigrostriatal dopaminergic system during increased cellular stress. […] In brief, mice were treated with daily IP injections of exogenous ghrelin (10 nmols) or saline for 14 days. Mice were injected immediately before the dark phase, and food was removed overnight since calorie intake and postprandial increases in glucose and insulin can suppress the action of ghrelin (Cummings et al., 2006, Physiol Behav 89: 71-84). Both ghrelin and saline treated mice were given 3 grams of standard chow the following morning at 9 am. […] After the subsequent 7 days of treatment (saline or ghrelin), TH immunoreactive neurons were counted blind by two independent researchers using the non-biased optical fractionator on the stereology program, Stereoinvestigator.

ghrelin (GSS(Octanoyl)FLSPEHQRVQQRKESKKPPAKLQPR; listed as Homo sapiens) [28 amino acid acyl-peptide esterified with octanoic acid on Ser3; endogenous ligand of GHSR]
TH mRNA expression in the midbrain [1]: 2.86±0.46
Action potential frequency (SNpc DA neurons; ghrelin 1-3 μmol bath application, control 100%): 131.9%±17.5
Identified DA neurons that responded (SNpc DA neurons; ghrelin bath application): 10 of 11
Action potential frequency after washout (SNpc DA neurons; washout of ghrelin, control 100%): 101.9%±4.6
Mitochondrial number in DA perikarya of the SNpc ([2]; mice, three hours after ghrelin injection, saline 0.46±0.03): 0.62±0.03 μm^2
Mitochondrial number in SNpc dopamine neurons, UCP2 ko mice ([2]; two hours after ghrelin injection, saline 0.45±0.03): 0.39±0.03 μm^2
Mitochondrial number in SNpc dopamine neurons, UCP2 wt mice ([2]; two hours after ghrelin injection, saline 0.46±0.03): 0.62±0.03 μm^2
Total TH neurons in SNpc, ghr/MPTP (TH neurons in the SNpc; ghrelin 10 nmols IP daily 14 days, MPTP 30 mg/kg IP on day 7): 7836±285
Total TH neurons in SNpc, ghr/sal (TH neurons in the SNpc; ghrelin 10 nmols IP daily 14 days, saline on day 7, sal/sal 11283±342): 11616±318
Dopamine cell loss compared to control mice, ghrelin treatment (TH neurons in the SNpc; ghrelin 14 days, MPTP on day 7): 33%
SNpc volume, ghr/MPTP (TH neurons in the SNpc; ghrelin 14 days, MPTP on day 7): not significantly different
SNpc volume, ghr/sal vs sal/sal (TH neurons in the SNpc; ghrelin 14 days, saline on day 7): not significantly different
